Assay results from patent publication US11136313B2, “Compounds, compositions, and methods for modulating CFTR” (Proteostasis Therapeutics, Inc., priority 2015, dated 2021).

target: T1, ΔF508-CFTR (Homo sapiens, UniProt P13569, DEL508-508); assay: hBE equivalent current (Ieq) assay: AUC of equivalent chloride current after forskolin/VX-770 in primary lung epithelial cells homozygous for ΔF508; assay type: cell-based; settings: relative to CFTR amplifier (Compound A)+VX-809 (3 uM), compound at 10 uM and Compound A at 3 uM, 24 h treatment
T1 construct: Primary lung epithelial cells homozygous for the Cystic Fibrosis-causing ΔF508 mutation were differentiated for a minimum of 4 weeks; endogenous in cells; host or cells: primary lung epithelial cells (hBE) homozygous for ΔF508, differentiated at an air-liquid interface
Procedure, shortened: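 ΔF508/ΔF508 primary human bronchial epithelia, differentiated ≥4 weeks at air-liquid interface, treated basolaterally with compound for 24 h at 37 °C. Transepithelial voltage and conductance by 24-channel current clamp at 36 °C: benzamil, then forskolin plus VX-770 for 27 min, then bumetanide; AUC of equivalent chloride current over vehicle.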

T1 sequence (P13569 with tags, fused parts or gaps DEL508-508): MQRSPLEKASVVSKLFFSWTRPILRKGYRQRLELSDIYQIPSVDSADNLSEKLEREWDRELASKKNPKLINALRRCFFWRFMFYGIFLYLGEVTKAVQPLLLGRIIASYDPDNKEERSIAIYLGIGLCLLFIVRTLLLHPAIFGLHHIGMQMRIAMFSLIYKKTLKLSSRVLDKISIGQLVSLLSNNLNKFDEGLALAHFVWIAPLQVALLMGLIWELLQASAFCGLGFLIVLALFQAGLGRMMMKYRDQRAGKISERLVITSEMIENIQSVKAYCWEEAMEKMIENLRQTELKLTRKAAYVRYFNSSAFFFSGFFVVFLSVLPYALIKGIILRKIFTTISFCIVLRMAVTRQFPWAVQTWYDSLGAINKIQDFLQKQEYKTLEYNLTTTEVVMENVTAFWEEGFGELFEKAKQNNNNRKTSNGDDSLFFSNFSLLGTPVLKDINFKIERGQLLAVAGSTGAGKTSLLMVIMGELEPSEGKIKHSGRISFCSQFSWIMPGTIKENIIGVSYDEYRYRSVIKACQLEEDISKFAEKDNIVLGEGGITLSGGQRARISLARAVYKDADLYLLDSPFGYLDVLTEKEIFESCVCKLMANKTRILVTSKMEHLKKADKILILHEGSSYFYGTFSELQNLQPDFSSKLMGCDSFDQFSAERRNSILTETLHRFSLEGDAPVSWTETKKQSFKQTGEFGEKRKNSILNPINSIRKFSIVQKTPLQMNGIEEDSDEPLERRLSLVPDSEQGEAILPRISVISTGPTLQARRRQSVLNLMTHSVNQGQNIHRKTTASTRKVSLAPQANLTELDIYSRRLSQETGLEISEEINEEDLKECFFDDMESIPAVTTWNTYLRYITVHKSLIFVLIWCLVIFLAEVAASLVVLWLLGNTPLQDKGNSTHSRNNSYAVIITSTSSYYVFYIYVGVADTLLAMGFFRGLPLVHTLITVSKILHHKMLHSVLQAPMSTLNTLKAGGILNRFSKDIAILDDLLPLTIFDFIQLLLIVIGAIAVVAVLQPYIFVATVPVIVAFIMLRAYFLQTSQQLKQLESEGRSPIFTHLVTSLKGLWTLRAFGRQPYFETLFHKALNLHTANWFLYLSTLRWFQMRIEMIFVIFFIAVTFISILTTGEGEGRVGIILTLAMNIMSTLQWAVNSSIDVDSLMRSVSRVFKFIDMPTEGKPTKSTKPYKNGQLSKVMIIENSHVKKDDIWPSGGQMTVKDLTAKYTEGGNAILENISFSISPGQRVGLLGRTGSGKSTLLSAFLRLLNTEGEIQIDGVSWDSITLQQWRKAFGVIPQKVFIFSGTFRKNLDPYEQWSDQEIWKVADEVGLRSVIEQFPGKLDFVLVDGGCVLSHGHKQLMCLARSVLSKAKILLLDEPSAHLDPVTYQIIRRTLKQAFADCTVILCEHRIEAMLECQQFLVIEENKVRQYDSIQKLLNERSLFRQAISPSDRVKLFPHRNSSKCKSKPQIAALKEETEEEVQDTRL

| Structure (SMILES) | Activity |
| --- | --- |
| Cc1c(-c2cc(C(=O)O)c3c(C)ccc(C)c3n2)oc2c(F)cccc12 [Compound 130, 2-(7-Fluoro-3-methyl-1-benzofuran-2-yl)-5,8-dimethylquinoline-4-carboxylic acid] | + (activity<50% of an CFTR amplifier (Compound A)+VX-809 (3 uM) with compound at 10 uM and Compound A at 3 uM) |
| Cc1c(-c2cc(C(=O)O)c3c(C)ccc(C)c3n2)oc2c(OCc3ccccc3)cccc12 [Compound 132, 2-[7-(Benzyloxy)-3-methyl-1-benzofuran-2-yl]-5,8-dimethylquinoline-4-carboxylic acid] | ++ (activity>50% of CFTR amplifier+VX-809 (3 uM) with compound at 10 uM and Compound A at 3 uM) |
| CCc1ccc(OCc2ccccc2)c2c(C(=O)O)cc(-c3sc4ccccc4c3C)nc12 [Compound 133, 5-(Benzyloxy)-8-ethyl-2-(3-methyl-1-benzothiophen-2-yl)quinoline-4-carboxylic acid] | ++ (activity>50% of CFTR amplifier+VX-809 (3 uM) with compound at 10 uM and Compound A at 3 uM) |
| Cc1c(-c2cc(C(=O)O)c3c(OC4CCCCC4)ccc(C)c3n2)sc2ccccc12 [Compound 134, 5-(Cyclohexyloxy)-8-methyl-2-(3-methyl-1-benzothiophen-2-yl)quinoline-4-carboxylic acid] | ++ (activity>50% of CFTR amplifier+VX-809 (3 uM) with compound at 10 uM and Compound A at 3 uM) |
| CCc1ccc(OC2CCCCC2)c2c(C(=O)O)cc(-c3sc4ccccc4c3C)nc12 [Compound 135, 5-(Cyclohexyloxy)-8-ethyl-2-(3-methyl-1-benzothiophen-2-yl)quinoline-4-carboxylic acid] | ++ (activity>50% of CFTR amplifier+VX-809 (3 uM) with compound at 10 uM and Compound A at 3 uM) |
| Cc1c(-c2cc(C(=O)O)c3c(O[C@H](C)c4ccccc4)ccc(C)c3n2)sc2ccccc12 [Compound 137, 8-Methyl-2-(3-methyl-1-benzothiophen-2-yl)-5-[(1R)-1-phenylethoxy]quinoline-4-carboxylic Acid] | ++ (activity>50% of CFTR amplifier+VX-809 (3 uM) with compound at 10 uM and Compound A at 3 uM) |
| Cc1c(-c2cc(C(=O)O)c3c(O[C@@H](C)c4ccccc4)ccc(C)c3n2)sc2ccccc12 [Compound 138, 8-Methyl-2-(3-methyl-1-benzothiophen-2-yl)-5-[(1S)-1-phenylethoxy]quinoline-4-carboxylic Acid] | ++ (activity>50% of CFTR amplifier+VX-809 (3 uM) with compound at 10 uM and Compound A at 3 uM) |
| CCc1ccc([S+]([O-])C2CCCCC2)c2c(C(=O)[O-])cc(-c3sc4ccccc4c3C)nc12.[Na+] (stereo not shown) [Compound 140, Sodium 5-(Cyclohexanesulfinyl)-8-ethyl-2-(3-methyl-1-benzothiophen-2-yl)quinoline-4-carboxylate] | ++ (activity>50% of CFTR amplifier+VX-809 (3 uM) with compound at 10 uM and Compound A at 3 uM) |
| CCc1ccc(OCCc2cccnc2)c2c(C(=O)O)cc(-c3sc4ccccc4c3C)nc12 [Compound 141, 8-Ethyl-2-(3-methyl-1-benzothiophen-2-yl)-5-[2-(pyridin-3-yl)ethoxy]quinoline-4-carboxylic Acid] | + (activity<50% of an CFTR amplifier (Compound A)+VX-809 (3 uM) with compound at 10 uM and Compound A at 3 uM) |
| CCc1ccc(OCc2cccc([S+](C)[O-])c2)c2c(C(=O)O)cc(-c3oc4ccccc4c3C)nc12 (stereo not shown) [Compound 142, 8-Ethyl-5-[(3-methanesulfinylphenyl)methoxy]-2-(3-methyl-1-benzofuran-2-yl)quinoline-4-carboxylic Acid] | ++ (activity>50% of CFTR amplifier+VX-809 (3 uM) with compound at 10 uM and Compound A at 3 uM) |
| CCc1ccc(OCc2cccc(S(C)(=O)=O)c2)c2c(C(=O)O)cc(-c3oc4ccccc4c3C)nc12 [Compound 143, 8-Ethyl-5-[(3-methanesulfonylphenyl)methoxy]-2-(3-methyl-1-benzofuran-2-yl)quinoline-4-carboxylic Acid] | ++ (activity>50% of CFTR amplifier+VX-809 (3 uM) with compound at 10 uM and Compound A at 3 uM) |
| CCc1ccc(OCc2ccc([S+](C)[O-])cc2)c2c(C(=O)O)cc(-c3oc4ccccc4c3C)nc12 (stereo not shown) [Compound 144, 8-Ethyl-5-[(4-methanesulfinylphenyl)methoxy]-2-(3-methyl-1-benzofuran-2-yl)quinoline-4-carboxylic acid] | ++ (activity>50% of CFTR amplifier+VX-809 (3 uM) with compound at 10 uM and Compound A at 3 uM) |
| CCc1ccc(OCc2ccc(S(C)(=O)=O)cc2)c2c(C(=O)O)cc(-c3oc4ccccc4c3C)nc12 [Compound 145, 8-Ethyl-5-[(4-methanesulfonylphenyl)methoxy]-2-(3-methyl-1-benzofuran-2-yl)quinoline-4-carboxylic acid] | ++ (activity>50% of CFTR amplifier+VX-809 (3 uM) with compound at 10 uM and Compound A at 3 uM) |
| CCc1ccc(OCc2ccccc2)c2c(C(=O)O)cc(-c3[nH]c4ccccc4c3C)nc12 [Compound 146, 5-(Benzyloxy)-8-ethyl-2-(3-methyl-1H-indol-2-yl)quinoline-4-carboxylic acid] | ++ (activity>50% of CFTR amplifier+VX-809 (3 uM) with compound at 10 uM and Compound A at 3 uM) |
| CCc1ccc(OCc2ccccc2)c2c(C(=O)O)cc(-c3c(C)c4ccccc4n3C)nc12 [Compound 147, 5-(Benzyloxy)-2-(1,3-dimethyl-1H-indol-2-yl)-8-ethylquinoline-4-carboxylic acid] | + (activity<50% of an CFTR amplifier (Compound A)+VX-809 (3 uM) with compound at 10 uM and Compound A at 3 uM) |
| CCc1ccc(OCc2ccccc2)c2c(C(=O)O)cc(-c3csc4ccccc34)nc12 [Compound 158, 2-(1-Benzothiophen-3-yl)-5-(benzyloxy)-8-ethylquinoline-4-carboxylic acid] | ++ (activity>50% of CFTR amplifier+VX-809 (3 uM) with compound at 10 uM and Compound A at 3 uM) |
| CCc1ccc(OC2CCCCC2)c2c(C(=O)O)cc(-c3csc4ccccc34)nc12 [Compound 159, 2-(1-Benzothiophen-3-yl)-5-(cyclohexyloxy)-8-ethylquinoline-4-carboxylic acid] | ++ (activity>50% of CFTR amplifier+VX-809 (3 uM) with compound at 10 uM and Compound A at 3 uM) |
| Cc1ccc(O[C@H](C)c2ccccc2)c2c(C(=O)O)cc(-c3csc4ccccc34)nc12 [Compound 162] | ++ (activity>50% of CFTR amplifier+VX-809 (3 uM) with compound at 10 uM and Compound A at 3 uM) |
| CCc1ccc(O[C@H](C)c2ccccc2)c2c(C(=O)O)cc(-c3csc4ccccc34)nc12 [Compound 165] | ++ (activity>50% of CFTR amplifier+VX-809 (3 uM) with compound at 10 uM and Compound A at 3 uM) |
| CCc1ccc(O[C@@H](C)c2ccccc2)c2c(C(=O)O)cc(-c3csc4ccccc34)nc12 [Compound 166] | ++ (activity>50% of CFTR amplifier+VX-809 (3 uM) with compound at 10 uM and Compound A at 3 uM) |
| CCc1ccc(OCc2ccccc2)c2c(C(=O)O)cc(-c3coc4ccccc34)nc12 [Compound 169, 2-(1-Benzofuran-3-yl)-5-(benzyloxy)-8-ethylquinoline-4-carboxylic acid] | ++ (activity>50% of CFTR amplifier+VX-809 (3 uM) with compound at 10 uM and Compound A at 3 uM) |
| CCc1ccc(OC2CCCCC2)c2c(C(=O)O)cc(-c3coc4ccccc34)nc12 [Compound 170, 2-(1-Benzofuran-3-yl)-5-(cyclohexyloxy)-8-ethylquinoline-4-carboxylic acid] | ++ (activity>50% of CFTR amplifier+VX-809 (3 uM) with compound at 10 uM and Compound A at 3 uM) |
